ChEMBL document CHEMBL1138331, “Potent antimalarial activity of 2-aminopyridinium salts, amidines, and guanidines” (J Med Chem, 2007)

Experiments:
[1] = physchem
Description: Dissociation constant, pKa by potentiometric titration

[2] = system: Plasmodium falciparum; test: microbe, parasite or virus in culture; conditions: Nigerian, 48 h
Description: Antimalarial activity against Plasmodium falciparum Nigerian in human erythrocytes after 48 hrs

SMILES | pKa [1] | IC50 [2] [nM]
Cc1ccc(N)[n+](CCCCCCCCCCCC[n+]2cc(C)ccc2N)c1 | 13 | 0.5
Cc1nccn1CCCCCCCCCCCCn1ccnc1C |  | 270
C[N+]1(CCCCCCCCCCCCCCCC[N+]2(C)CCCC2COc2ccc(C(F)(F)F)cc2)CCCC1COc1ccc(C(F)(F)F)cc1 (stereo unspecified) |  | 29
C(CCCCCCNC1=NCCCC1)CCCCCNC1=NCCCC1 | 12.7 | 3
N=c1sc(-c2cccc(Cl)c2)nn1CCCCCCCCCCCCn1nc(-c2cccc(Cl)c2)sc1=N | 7.7 | 18500
c1cn(CCCCCCCCCCCCn2ccnc2)cn1 |  | 2000
CC1(C)CN=C(NCCCCCCCCCCCCNC2=NCCCN2)NC1 |  | 0.6
Cc1ccc(-c2nn(CCCCCCCCCCCCn3nc(-c4ccc(C)cc4)sc3=N)c(=N)s2)cc1 | 8.1 | 5600
CC1(C)CN=C(CCCCCCCCCCCCC2=NCC(C)(C)N2)N1 |  | 1
C(CCCCCCC1=NCCCN1)CCCCCC1=NCCCN1 | 13.1 | 2.3
CN(C)C(=N)CCCCCCCCCCCCC(=N)N(C)C | 12.8 | 6.3
C(CCCCCCNC1=NCCN1)CCCCCNC1=NCCN1 | 13.5 | 1.7
CCN(CC)CCCCCCCCCCCCCCCCN(CC)CC |  | 110
N=C(N)CCCCCCCCCCCCC(=N)N | 13.6 | 0.3
Nc1cccc[n+]1CCCCCCCCCCCC[n+]1ccccc1N | 13.5 | 2.3
N=c1ncc(-c2ccccc2)cn1CCCCCCCCCCCCn1cc(-c2ccccc2)cnc1=N | 11.3 | 12.3
c1ccc2[nH]c(CCCCCCCCCCCCc3nc4ccccc4[nH]3)nc2c1 | 9 | 1800
N=C(N)CCCCCCCCCCCCCCCCC(=N)N | 13.2 | 100
CN1CCN=C1CCCCCCCCCCCCC1=NCCN1C | 11 | 43
CCCCCCCCCCCC[n+]1ccc(C)cc1N |  | 1550

SMILES | pKa [1] | IC50 [2] [nM]
FC(F)(F)c1ccc(OCC2CCCN2CCCCCCCCCCCCCCCCN2CCCC2COc2ccc(C(F)(F)F)cc2)cc1 (stereo unspecified) |  | 5400
N=c1n(CCCCCCCCCCCCn2c(=N)n(Cc3ccccc3)c3ccccc32)c2ccccc2n1Cc1ccccc1 | 9.4 | 450
C(CCCCCCC1=NCCN1)CCCCCC1=NCCN1 | 13 | 2
N=c1c2ccccc2ccn1CCCCCCCCCCCCn1ccc2ccccc2c1=N | 11.1 | 260
CC(=N)NCCCCCCCCCCCCNC(C)=N | 12.6 | 2
N=c1ncccn1CCCCCCCCCCCCn1cccnc1=N | 11.7 | 145
Cc1cc[n+](CCCc2ccc(CCC[n+]3ccc(C)cc3N)cc2)c(N)c1 | 12.6 | 2.9
Cc1cc[n+](CCCCCCCCCCCC[n+]2ccc(C)cc2N)c(N)c1 | 13.5 | 0.5
Cc1cc[n+](CCCCCCCC[n+]2ccc(C)cc2N)c(N)c1 |  | 7.2
N=C(CCCCCCCCCCCCC(=N)N1CCCCC1)N1CCCCC1 | 12.6 | 4.9
CC[N+](CC)(CC)CCOCCCCCCCCCCCCOCC[N+](CC)(CC)CC |  | 3.3
N=C(N)NCCCCCCCCCCCCNC(=N)N |  | 0.35
CN(C)/C(=N\C#N)NCCCCCCCCCCCCN/C(=N\C#N)N(C)C |  | 8500
N=C1CCCN1CCCCCCCCCCCCN1CCCC1=N |  | 4
OCC1CCCN1CCCCCCCCCCCCCCCCN1CCCC1CO (stereo unspecified) |  | 160
C[N+]1(CCCCCCCCCCCCCCCC[N+]2(C)CCCC2CO)CCCC1CO (stereo unspecified) |  | 1.5
C(CCCCCCCCN1CCCC1)CCCCCCCN1CCCC1 |  | 110
N=c1sc2ccccc2n1CCCCCCCCCCCCn1c(=N)sc2ccccc21 |  | 4000
Cc1ccc[n+](CCCCCCCCCCCC[n+]2cccc(C)c2N)c1N | 13.3 | 1.8
N=c1cc2ccc3ccccc3c2nn1CCCCCCCCCCCCn1nc2c(ccc3ccccc32)cc1=N | 11.7 | 50

SMILES | pKa [1] | IC50 [2] [nM]
C(CCCCCCNC1=NCCC1)CCCCCNC1=NCCC1 | 12.1 | 3.8
C(CCCCCCC1=NC2CCCCC2N1)CCCCCC1=NC2CCCCC2N1 (stereo unspecified) |  | 3
N=C(CCCCCCCCCCCCC(=N)N1CCCC1)N1CCCC1 | 13.2 | 0.8
CCOC(=N)CCCCCCCCCCCCC(=N)OCC | 7.6 | 52000
C(CCCCCCN/C(=N\C1CCCCC1)NC1CCCCC1)CCCCCN/C(=N\C1CCCCC1)NC1CCCCC1 |  | 21
c1c[nH]c(CCCCCCCCCCCCc2ncc[nH]2)n1 | 9.8 | 1650
C(CCCCCCNC1=NCCCN1)CCCCCNC1=NCCCN1 |  | 0.5
Nc1cc(-c2ccccc2)cc[n+]1CCCc1ccc(CCC[n+]2ccc(-c3ccccc3)cc2N)cc1 | 12.6 | 4.5
CCN(CC)CCCCCCCCCCCCN(CC)CC |  | 540
Nc1ccc(-c2ccccc2)c[n+]1CCCc1ccc(CCC[n+]2cc(-c3ccccc3)ccc2N)cc1 | 12.8 | 13
CCN(CC)CCOCCCCCCCCCCCCOCCN(CC)CC |  | 120
Cc1cc[n+](CCCCCCCCCCCCCCCC[n+]2ccc(C)cc2N)c(N)c1 | 13.6 | 3.8
CN(C)C(=N)NCCCCCCCCCCCCNC(=N)N(C)C | 14.1 | 1.6
CC1CN=C(CCCCCCCCCCCCC2=NCC(C)N2)N1 (stereo unspecified) |  | 1
Nc1ccc(Cl)c[n+]1CCCCCCCCCCCC[n+]1cc(Cl)ccc1N | 12.8 | 1.4
N=c1sc(-c2ccccc2)nn1CCCCCCCCCCCCn1nc(-c2ccccc2)sc1=N | 8 | 760
Cn1c(=N)n(CCCCCCCCCCCCn2c(=N)n(C)c3ccccc32)c2ccccc21 | 11.9 | 65
N=c1sc(-c2cccs2)nn1CCCCCCCCCCCCn1nc(-c2cccs2)sc1=N | 7.8 | 8150
C(CCCCCCNC1=NCCCCC1)CCCCCNC1=NCCCCC1 |  | 2.2
N=c1sccn1CCCCCCCCCCCCn1ccsc1=N | 10.1 | 800
